# PMC4335062, “Data-Driven Prediction and Design of bZIP Coiled-Coil Interactions” (PLoS Computational Biology, 2015)
# Like-named read-outs stand apart in the source and are kept apart here. Where no end group is shown, it is not given here.
# Key:
# Assay in all cases: Direct-binding FRET assay
# [1] = molecular target: T1, HLF (Homo sapiens, UniProt Q16534); settings: read-out: Kd
# T1 construct: made in house
# T1 sequence (Q16534 225-288 limits assumed): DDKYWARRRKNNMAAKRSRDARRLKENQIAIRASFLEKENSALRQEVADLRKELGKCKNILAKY
# Description: (§1) The direct binding assay was performed manually in 384-well plates and is similar to a previously described assay. Wells were filled with 20 μL of 1 mM TCEP-HCl. A 4 μM stock of acceptor protein was made fresh in 1 mM TCEP-HCl, and 20 μL was titrated in 2-fold dilutions over the wells. […] The direct-binding FRET data were fit as previously described. Briefly, the Kd of the designed peptide homodimer was experimentally determined and used with previously determined target homodimer Kd values to determine the heterodimer Kd. The homodimer Kd values used for the human bZIPs were from; experiments done by […] et al. used the same protein constructs for the human bZIP proteins, the same buffer conditions, and the same assay. The fitting used a system of ordinary differential equations to describe the concentrations of homo and heterodimers formed by the donor (D) and acceptor (A) as a function of the heterodimer Kd. MATLAB was used to simulate the binding experiment for different Kd values, and the value that gave the best agreement between simulation and experiment was assigned. A minimum 15% change in the donor fluorescence upon titrating the acceptor peptide from 0 to 1000 nM was required for a fit to be attempted. If this minimum was not met, the interaction was classified as “NS” for no signal change. […] These interactions were marked “AS” to indicate anomalous signal. We attributed this to interactions between the peptides, the dyes and the walls of the assay plates at low concentrations. These curves could not be fit, given their unusual shapes at low concentrations of acceptor. For such curves, we removed the first five points and re-fit the data. […] One example of this is increasing concentrations of acceptor causing an increase in donor fluorescence.
# [2] = molecular target: T2, DBP (Homo sapiens, UniProt Q10586); settings: read-out: Kd
# T2 construct: made in house
# T2 sequence (Q10586 255-318 limits assumed): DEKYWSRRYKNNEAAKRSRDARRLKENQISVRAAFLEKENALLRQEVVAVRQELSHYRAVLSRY
# Description: as §1
# [3] = molecular target: T3, FOSL1 (Homo sapiens, UniProt P15407); settings: read-out: Kd
# T3 construct: made in house
# T3 sequence (P15407 105-168 limits assumed): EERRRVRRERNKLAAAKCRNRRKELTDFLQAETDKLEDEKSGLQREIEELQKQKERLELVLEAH
# Description: as §1
# [4] = molecular target: T4, NFIL3 (Homo sapiens, UniProt Q16649); settings: read-out: Kd
# T4 construct: made in house
# T4 sequence (Q16649 73-136 limits assumed): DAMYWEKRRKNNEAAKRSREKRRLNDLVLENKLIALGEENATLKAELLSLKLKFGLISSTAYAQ
# Description: as §1
# [5] = molecular target: T5, BATF3 (Homo sapiens, UniProt Q9NR55); settings: mean or single, read-out: Kd
# T5 construct: made in house
# T5 sequence (Q9NR55 35-98 limits assumed): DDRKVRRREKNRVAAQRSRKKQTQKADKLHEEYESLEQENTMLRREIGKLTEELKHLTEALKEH
# Description: as §1
# [6] = molecular target: T6, JUNB (Homo sapiens, UniProt P17275); settings: read-out: Kd
# T6 construct: made in house
# T6 sequence (P17275 268-331 limits assumed): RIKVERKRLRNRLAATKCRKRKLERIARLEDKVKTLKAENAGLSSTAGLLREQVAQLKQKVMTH
# Description: as §1
# [7] = molecular target: T7, CREB3L1 (Homo sapiens, UniProt Q96BA8); settings: mean or single, read-out: Kd
# T7 construct: made in house
# T7 sequence (Q96BA8 290-353 limits assumed): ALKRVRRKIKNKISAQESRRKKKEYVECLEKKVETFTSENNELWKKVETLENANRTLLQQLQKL
# Description: as §1
# [8] = molecular target: T8, ATF5 (Homo sapiens, UniProt Q9Y2D1); settings: read-out: Kd
# T8 construct: made in house
# T8 sequence (Q9Y2D1 208-271 limits assumed): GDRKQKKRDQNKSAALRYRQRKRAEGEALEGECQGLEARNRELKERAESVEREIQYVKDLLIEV
# Description: as §1
# [9] = molecular target: T9, CREBZF (Homo sapiens, UniProt Q9NS37); settings: read-out: Kd
# T9 construct: made in house
# T9 sequence (Q9NS37 204-267 limits assumed): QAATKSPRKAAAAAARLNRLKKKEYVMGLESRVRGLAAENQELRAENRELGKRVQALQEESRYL
# Description: as §1
# [10] = molecular target: T10, CREB3L3 (Homo sapiens, UniProt Q68CJ9); settings: read-out: Kd
# T10 construct: made in house
# T10 sequence (Q68CJ9 243-306 limits assumed): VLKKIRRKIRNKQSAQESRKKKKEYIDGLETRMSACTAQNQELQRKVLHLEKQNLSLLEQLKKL
# Description: as §1
# [11] = 4°C, C-terminal fluorescein design as donor, TAMRA target titrated
# [12] = 4°C, C-terminal rhodamine design, mean or single
# [13] = 4°C, N-terminal rhodamine design, mean or single
# [14] = 23°C, C-terminal fluorescein design as donor, TAMRA target titrated
# [15] = 23°C, C-terminal rhodamine design, mean or single
# [16] = 23°C, N-terminal rhodamine design, mean or single
# [17] = 37°C, C-terminal fluorescein design as donor, TAMRA target titrated
# [18] = 37°C, C-terminal rhodamine design, mean or single
# [19] = 37°C, N-terminal rhodamine design, mean or single
# [20] = 23°C, C-terminal rhodamine design, repeat 1
# [21] = 23°C, C-terminal rhodamine design, repeat 2
# [22] = 37°C, C-terminal rhodamine design, repeat 1
# [23] = 37°C, C-terminal rhodamine design, repeat 2
# [24] = 37°C, C-terminal rhodamine design, repeat 3
# [25] = 4°C, C-terminal rhodamine design
# [26] = 4°C, N-terminal rhodamine design
# [27] = 23°C, C-terminal rhodamine design
# [28] = 23°C, N-terminal rhodamine design
# [29] = 37°C, C-terminal rhodamine design
# [30] = 37°C, N-terminal rhodamine design
sequence,measurement,setting,value
NQIKTLRTRLSKLRKDNLQLEKDIANLERKAKDLRAEKEQLEYEL [ATF4-d1],Kd,[1]; [11],> 1000 nM
same,Kd,[1]; [12],> 5000 nM
same,Kd,[1]; [13],> 1000 nM
same,Kd,[1]; [14],> 1000 nM
same,Kd,[1]; [15],> 1000 nM
same,Kd,[1]; [16],> 1000 nM
same,Kd,[1]; [17],> 1000 nM
same,Kd,[1]; [18],> 5000 nM
same,Kd,[1]; [19],> 1000 nM
same,Kd,[2]; [12],> 5000 nM
same,Kd,[2]; [13],> 1000 nM
same,Kd,[2]; [14],> 1000 nM
same,Kd,[2]; [15],> 1000 nM
same,Kd,[2]; [16],> 1000 nM
same,Kd,[2]; [17],> 1000 nM
same,Kd,[2]; [18],> 1000 nM
same,Kd,[2]; [19],> 1000 nM
same,Kd,[3]; [11],> 5000 nM
same,Kd,[3]; [12],> 1000 nM
same,Kd,[3]; [13],> 5000 nM
same,Kd,[3]; [14],> 1000 nM
same,Kd,[3]; [15],> 1000 nM
same,Kd,[3]; [16],> 1000 nM
same,Kd,[3]; [17],> 1000 nM
same,Kd,[3]; [18],> 1000 nM
same,Kd,[3]; [19],> 1000 nM
same,Kd,[4]; [11],42.4 nM
same,Kd,[4]; [12],22.8 nM
same,Kd,[4]; [13],> 1000 nM
same,Kd,[4]; [14],> 1000 nM
same,Kd,[4]; [20],> 5000 nM
same,Kd,[4]; [21],> 5000 nM
same,Kd,[4]; [16],> 1000 nM
same,Kd,[4]; [17],> 1000 nM
same,Kd,[4]; [18],> 5000 nM
same,Kd,[4]; [22],> 5000 nM
same,Kd,[4]; [23],> 5000 nM
same,Kd,[4]; [24],> 5000 nM
same,Kd,[4]; [19],> 1000 nM
same,Kd,[5]; [25],> 1000 nM
same,Kd,[5]; [26],> 1000 nM
same,Kd,[5]; [27],> 1000 nM
same,Kd,[5]; [28],> 1000 nM
same,Kd,[5]; [29],> 1000 nM
same,Kd,[5]; [30],> 1000 nM
same,Kd,[6]; [11],> 1000 nM
same,Kd,[6]; [12],> 1000 nM
same,Kd,[6]; [13],> 1000 nM
same,Kd,[6]; [14],> 1000 nM
same,Kd,[6]; [15],> 1000 nM
same,Kd,[6]; [16],> 1000 nM
same,Kd,[6]; [17],> 1000 nM
same,Kd,[6]; [18],> 1000 nM
same,Kd,[6]; [19],> 1000 nM
same,Kd,[7]; [25],> 5000 nM
same,Kd,[7]; [26],> 1000 nM
same,Kd,[7]; [27],< 200 nM
same,Kd,[7]; [28],> 1000 nM
same,Kd,[7]; [29],> 1000 nM
same,Kd,[7]; [30],> 1000 nM
same,Kd,[8]; [11],35.5 nM
same,Kd,[8]; [12],> 5000 nM
same,Kd,[8]; [15],> 5000 nM
same,Kd,[8]; [20],> 5000 nM
same,Kd,[8]; [21],> 5000 nM
same,Kd,"[8]; 23°C, C-terminal rhodamine design, repeat 3",> 5000 nM
same,Kd,"[8]; 23°C, N-terminal rhodamine design, repeat 1",> 1000 nM
same,Kd,[8]; [17],> 1000 nM
same,Kd,[8]; [18],> 5000 nM
same,Kd,[8]; [22],> 5000 nM
same,Kd,[8]; [23],> 5000 nM
same,Kd,[8]; [24],> 5000 nM
same,Kd,[8]; [19],> 1000 nM
same,Kd,"[8]; 37°C, N-terminal rhodamine design, repeat 1",> 1000 nM
same,Kd,"[8]; 37°C, N-terminal rhodamine design, repeat 2",> 1000 nM
same,Kd,"[8]; 37°C, N-terminal rhodamine design, repeat 3",> 1000 nM
same,Kd,[9]; [12],> 5000 nM
same,Kd,[9]; [13],< 200 nM
same,Kd,[9]; [14],> 1000 nM
same,Kd,[9]; [15],> 5000 nM
same,Kd,[9]; [16],> 5000 nM
same,Kd,[9]; [17],> 1000 nM
same,Kd,[9]; [18],> 1000 nM
same,Kd,[9]; [19],> 1000 nM
same,Kd,[10]; [11],> 1000 nM
same,Kd,[10]; [12],> 5000 nM
same,Kd,[10]; [13],> 1000 nM
same,Kd,[10]; [14],> 1000 nM
same,Kd,[10]; [15],> 1000 nM
same,Kd,[10]; [16],> 1000 nM
same,Kd,[10]; [17],> 1000 nM
same,Kd,[10]; [18],> 1000 nM
same,Kd,[10]; [19],> 1000 nM
